{
  "source": "patent US20180344745A1",
  "about": "“TREATMENT OF DEVELOPMENTAL DISORDERS WITH IMIDAZOLONE DERIVATIVES” (Ovid Therapeutics Inc., priority 2017, published 2018)",
  "origin": "cited, not measured here",
  "conditions": "smokers versus non-smokers",
  "data": [
    {"smiles": "O=C1N=C(N2CCOCC2)CN1c1ccc(Cl)cc1", "note": "[imepitoin, 1-(4-chlorophenyl)-4-morpholino-imidazolin-2-one]", "values": [
      {"measurement": "elimination", "value": "more rapidly eliminated in smokers than in non-smokers"}
    ]}
  ]
}
